Columns and labels:
Test in all cases: KAM-matrix competition in K562 lysate;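 on 0.001 uM KAM: median log10 fold change of treatment over DMSO control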;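 on 0.01 uM KAM: median log10 fold change of treatment over DMSO control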;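 on 0.1 uM KAM: median log10 fold change of treatment over DMSO control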;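 on 1 uM KAM: median log10 fold change of treatment over DMSO control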;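 on 10 uM KAM: median log10 fold change of treatment over DMSO control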
Type in all cases: binding
MAST2 = molecular target: T1, MAST2 (Homo sapiens, UniProt Q6P0Q8);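 on 0.001 uM KAM: median log10 fold change of treatment over DMSO control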;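 on 0.01 uM KAM: median log10 fold change of treatment over DMSO control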;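 on 0.1 uM KAM: median log10 fold change of treatment over DMSO control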;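 on 1 uM KAM: median log10 fold change of treatment over DMSO control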;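 on 10 uM KAM: median log10 fold change of treatment over DMSO control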
T1 construct: endogenous in cells; host or cells: K562 cells (combined S0.8 and P0.8 lysate)
Protocol: (§1) Supplement 12953_2017_125_MOESM1_ESM.zip/MS_Supp Info.xlsx, sheet "KAM" | column: 10 uM KAM; 1 uM KAM; 0.1 uM KAM; 0.01 uM KAM; 0.001 uM KAM; RB50

EIF2AK4 = molecular target: T2, EIF2AK4 (Homo sapiens, UniProt Q9P2K8);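 on 0.001 uM KAM: median log10 fold change of treatment over DMSO control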;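 on 0.01 uM KAM: median log10 fold change of treatment over DMSO control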;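 on 0.1 uM KAM: median log10 fold change of treatment over DMSO control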;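 on 1 uM KAM: median log10 fold change of treatment over DMSO control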;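 on 10 uM KAM: median log10 fold change of treatment over DMSO control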
T2 construct: endogenous in cells; host or cells: K562
Protocol: as §1

MAP4K5 = molecular target: T3, MAP4K5 (Homo sapiens, UniProt Q9Y4K4)
T3 construct: endogenous in cells; host or cells: K562
Protocol: as §1

RPS6KA1 = molecular target: T4, RPS6KA1 (Homo sapiens, UniProt Q15418);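 on 0.001 uM KAM: median log10 fold change of treatment over DMSO control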;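 on 0.01 uM KAM: median log10 fold change of treatment over DMSO control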;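 on 0.1 uM KAM: median log10 fold change of treatment over DMSO control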;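 on 1 uM KAM: median log10 fold change of treatment over DMSO control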;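 on 10 uM KAM: median log10 fold change of treatment over DMSO control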
T4 construct: endogenous in cells; host or cells: K562
Protocol: as §1

MARK2 = molecular target: T5, MARK2 (Homo sapiens, UniProt Q7KZI7)
T5 construct: endogenous in cells; host or cells: K562
Protocol: as §1

BUB1B = molecular target: T6, BUB1B (Homo sapiens, UniProt O60566);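 on 0.001 uM KAM: median log10 fold change of treatment over DMSO control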;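 on 0.01 uM KAM: median log10 fold change of treatment over DMSO control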;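 on 0.1 uM KAM: median log10 fold change of treatment over DMSO control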;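 on 1 uM KAM: median log10 fold change of treatment over DMSO control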;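 on 10 uM KAM: median log10 fold change of treatment over DMSO control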
T6 construct: endogenous in cells; host or cells: K562
Protocol: as §1

TNIK = molecular target: T7, TNIK (Homo sapiens, UniProt Q9UKE5)
T7 construct: K562 cell pellets were thawed on ice and resuspended in cold Lysis buffer; endogenous in cells; host or cells: K562
Protocol: as §1

CSNK1A1 = molecular target: T8, CSNK1A1 (Homo sapiens, UniProt P48729);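 on 0.001 uM KAM: median log10 fold change of treatment over DMSO control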;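 on 0.01 uM KAM: median log10 fold change of treatment over DMSO control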;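 on 0.1 uM KAM: median log10 fold change of treatment over DMSO control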;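 on 1 uM KAM: median log10 fold change of treatment over DMSO control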;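 on 10 uM KAM: median log10 fold change of treatment over DMSO control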
T8 construct: endogenous in cells; host or cells: K562
Protocol: as §1

EEF2K = molecular target: T9, EEF2K (Homo sapiens, UniProt O00418);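 on 0.001 uM KAM: median log10 fold change of treatment over DMSO control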;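 on 0.01 uM KAM: median log10 fold change of treatment over DMSO control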;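 on 0.1 uM KAM: median log10 fold change of treatment over DMSO control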;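 on 1 uM KAM: median log10 fold change of treatment over DMSO control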;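 on 10 uM KAM: median log10 fold change of treatment over DMSO control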
T9 construct: endogenous in cells; host or cells: K562 lysate
T9 sequence (O00418 1-725): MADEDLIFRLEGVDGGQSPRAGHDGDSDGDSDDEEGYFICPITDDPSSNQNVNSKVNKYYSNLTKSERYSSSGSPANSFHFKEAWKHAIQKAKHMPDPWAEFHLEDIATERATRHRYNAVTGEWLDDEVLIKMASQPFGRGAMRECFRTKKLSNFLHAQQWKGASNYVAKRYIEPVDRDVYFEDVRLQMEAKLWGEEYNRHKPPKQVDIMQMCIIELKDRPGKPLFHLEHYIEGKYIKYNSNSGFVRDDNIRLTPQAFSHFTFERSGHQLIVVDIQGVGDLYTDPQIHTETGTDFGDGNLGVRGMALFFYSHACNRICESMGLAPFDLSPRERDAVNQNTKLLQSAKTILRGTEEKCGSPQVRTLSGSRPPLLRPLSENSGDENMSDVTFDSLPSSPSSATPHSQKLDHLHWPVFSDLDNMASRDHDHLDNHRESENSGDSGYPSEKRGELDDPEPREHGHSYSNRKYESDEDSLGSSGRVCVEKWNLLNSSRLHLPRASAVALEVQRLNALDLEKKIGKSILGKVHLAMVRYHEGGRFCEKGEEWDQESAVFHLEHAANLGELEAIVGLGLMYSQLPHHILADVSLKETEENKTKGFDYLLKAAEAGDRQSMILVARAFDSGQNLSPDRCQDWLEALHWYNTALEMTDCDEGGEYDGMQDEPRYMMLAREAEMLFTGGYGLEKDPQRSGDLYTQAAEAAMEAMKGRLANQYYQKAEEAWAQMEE
Protocol: as §1

LIMK1 = LIMK1 (Homo sapiens, UniProt P53667);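 on 0.001 uM KAM: median log10 fold change of treatment over DMSO control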;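 on 0.01 uM KAM: median log10 fold change of treatment over DMSO control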;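 on 0.1 uM KAM: median log10 fold change of treatment over DMSO control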;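 on 1 uM KAM: median log10 fold change of treatment over DMSO control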;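 on 10 uM KAM: median log10 fold change of treatment over DMSO control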
Protocol: as §1

CDK16 = molecular target: T10, CDK16 (Homo sapiens, UniProt Q00536)
T10 construct: endogenous in cells; host or cells: K562
Protocol: as §1

ROCK1 = molecular target: T11, ROCK1 (Homo sapiens, UniProt Q13464);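 on 0.001 uM KAM: median log10 fold change of treatment over DMSO control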;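 on 0.01 uM KAM: median log10 fold change of treatment over DMSO control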;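 on 0.1 uM KAM: median log10 fold change of treatment over DMSO control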;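 on 1 uM KAM: median log10 fold change of treatment over DMSO control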;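 on 10 uM KAM: median log10 fold change of treatment over DMSO control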
T11 construct: endogenous in cells; host or cells: K562
Protocol: as §1

[1] = KAM 0.001-10 uM, read-out: RB50 (the source's name)
[2] = read-out: RB50 (the source's name)

T7 sequence (Q9UKE5 whole entry): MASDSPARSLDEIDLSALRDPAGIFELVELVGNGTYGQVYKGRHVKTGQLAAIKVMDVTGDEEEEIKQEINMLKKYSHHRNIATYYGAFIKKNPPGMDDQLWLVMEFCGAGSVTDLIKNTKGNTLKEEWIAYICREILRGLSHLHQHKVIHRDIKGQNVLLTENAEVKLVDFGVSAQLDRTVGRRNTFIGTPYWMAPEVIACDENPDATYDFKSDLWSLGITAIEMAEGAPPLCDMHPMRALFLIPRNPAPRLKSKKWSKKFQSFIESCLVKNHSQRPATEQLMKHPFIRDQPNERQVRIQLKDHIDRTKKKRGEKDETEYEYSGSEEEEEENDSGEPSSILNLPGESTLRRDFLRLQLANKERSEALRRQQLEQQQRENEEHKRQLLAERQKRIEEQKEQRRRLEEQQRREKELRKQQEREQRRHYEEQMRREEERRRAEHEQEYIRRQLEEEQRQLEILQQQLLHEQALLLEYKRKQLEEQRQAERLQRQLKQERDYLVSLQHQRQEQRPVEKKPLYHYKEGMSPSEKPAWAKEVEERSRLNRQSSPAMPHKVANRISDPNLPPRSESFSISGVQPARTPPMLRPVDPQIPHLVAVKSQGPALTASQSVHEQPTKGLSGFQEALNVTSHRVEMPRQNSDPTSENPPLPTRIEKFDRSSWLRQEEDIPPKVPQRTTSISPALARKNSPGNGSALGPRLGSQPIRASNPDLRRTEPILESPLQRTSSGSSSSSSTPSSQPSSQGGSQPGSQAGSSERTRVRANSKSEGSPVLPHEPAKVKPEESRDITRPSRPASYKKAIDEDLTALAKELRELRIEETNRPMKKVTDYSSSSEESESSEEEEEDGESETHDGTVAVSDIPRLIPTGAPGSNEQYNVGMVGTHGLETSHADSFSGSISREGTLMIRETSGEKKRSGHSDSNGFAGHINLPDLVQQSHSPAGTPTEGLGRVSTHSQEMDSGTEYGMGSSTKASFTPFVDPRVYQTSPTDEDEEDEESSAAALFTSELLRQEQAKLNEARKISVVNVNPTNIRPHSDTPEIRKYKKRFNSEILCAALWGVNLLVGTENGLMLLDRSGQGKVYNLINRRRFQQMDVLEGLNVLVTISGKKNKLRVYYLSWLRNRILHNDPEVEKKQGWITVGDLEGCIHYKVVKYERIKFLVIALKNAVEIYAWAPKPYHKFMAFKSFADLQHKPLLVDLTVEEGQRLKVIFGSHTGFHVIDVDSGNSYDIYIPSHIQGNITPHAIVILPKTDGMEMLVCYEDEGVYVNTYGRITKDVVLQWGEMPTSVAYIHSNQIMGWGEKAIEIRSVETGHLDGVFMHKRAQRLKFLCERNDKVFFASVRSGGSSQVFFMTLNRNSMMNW
T2 sequence (Q9P2K8 whole entry): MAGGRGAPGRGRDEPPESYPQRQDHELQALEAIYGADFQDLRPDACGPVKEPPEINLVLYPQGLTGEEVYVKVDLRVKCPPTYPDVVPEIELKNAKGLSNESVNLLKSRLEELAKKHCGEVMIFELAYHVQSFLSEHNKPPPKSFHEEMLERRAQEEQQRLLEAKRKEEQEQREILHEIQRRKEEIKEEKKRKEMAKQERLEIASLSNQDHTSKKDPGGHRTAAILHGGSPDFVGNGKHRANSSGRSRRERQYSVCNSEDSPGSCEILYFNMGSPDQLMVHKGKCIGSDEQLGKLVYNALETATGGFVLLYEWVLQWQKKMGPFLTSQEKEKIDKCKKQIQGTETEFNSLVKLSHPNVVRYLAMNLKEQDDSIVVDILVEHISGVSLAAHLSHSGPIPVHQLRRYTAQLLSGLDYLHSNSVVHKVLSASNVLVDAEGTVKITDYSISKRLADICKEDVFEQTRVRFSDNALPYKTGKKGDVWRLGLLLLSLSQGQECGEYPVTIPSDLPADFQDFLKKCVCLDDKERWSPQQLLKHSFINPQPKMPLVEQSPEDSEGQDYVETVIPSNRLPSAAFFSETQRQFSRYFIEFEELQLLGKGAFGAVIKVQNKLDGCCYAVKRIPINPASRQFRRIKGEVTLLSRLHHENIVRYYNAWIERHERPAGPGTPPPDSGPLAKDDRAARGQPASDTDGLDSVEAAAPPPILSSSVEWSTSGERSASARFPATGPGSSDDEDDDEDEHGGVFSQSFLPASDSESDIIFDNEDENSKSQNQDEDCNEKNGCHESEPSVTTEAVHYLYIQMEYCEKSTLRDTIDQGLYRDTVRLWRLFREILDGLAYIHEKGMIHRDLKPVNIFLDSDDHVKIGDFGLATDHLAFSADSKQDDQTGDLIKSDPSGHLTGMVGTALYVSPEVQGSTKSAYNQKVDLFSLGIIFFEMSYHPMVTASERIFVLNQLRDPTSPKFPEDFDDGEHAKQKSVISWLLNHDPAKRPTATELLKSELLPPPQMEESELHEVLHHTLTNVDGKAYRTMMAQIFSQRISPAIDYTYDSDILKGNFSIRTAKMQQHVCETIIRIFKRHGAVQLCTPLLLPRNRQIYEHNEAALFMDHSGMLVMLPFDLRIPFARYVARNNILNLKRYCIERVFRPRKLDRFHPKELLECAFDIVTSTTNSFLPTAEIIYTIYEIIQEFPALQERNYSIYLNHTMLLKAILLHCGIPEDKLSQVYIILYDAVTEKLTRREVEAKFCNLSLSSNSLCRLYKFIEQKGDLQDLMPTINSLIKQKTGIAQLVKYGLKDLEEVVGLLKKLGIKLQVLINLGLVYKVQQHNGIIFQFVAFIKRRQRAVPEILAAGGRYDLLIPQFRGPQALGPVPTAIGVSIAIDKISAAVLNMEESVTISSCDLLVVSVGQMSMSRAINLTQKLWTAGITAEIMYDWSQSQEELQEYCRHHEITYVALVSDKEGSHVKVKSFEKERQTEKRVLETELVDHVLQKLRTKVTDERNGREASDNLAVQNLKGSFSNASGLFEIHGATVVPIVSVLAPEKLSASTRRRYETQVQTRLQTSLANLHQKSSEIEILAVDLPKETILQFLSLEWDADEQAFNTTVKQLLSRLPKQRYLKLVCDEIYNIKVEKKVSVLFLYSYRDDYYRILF
T1 sequence (Q6P0Q8 whole entry): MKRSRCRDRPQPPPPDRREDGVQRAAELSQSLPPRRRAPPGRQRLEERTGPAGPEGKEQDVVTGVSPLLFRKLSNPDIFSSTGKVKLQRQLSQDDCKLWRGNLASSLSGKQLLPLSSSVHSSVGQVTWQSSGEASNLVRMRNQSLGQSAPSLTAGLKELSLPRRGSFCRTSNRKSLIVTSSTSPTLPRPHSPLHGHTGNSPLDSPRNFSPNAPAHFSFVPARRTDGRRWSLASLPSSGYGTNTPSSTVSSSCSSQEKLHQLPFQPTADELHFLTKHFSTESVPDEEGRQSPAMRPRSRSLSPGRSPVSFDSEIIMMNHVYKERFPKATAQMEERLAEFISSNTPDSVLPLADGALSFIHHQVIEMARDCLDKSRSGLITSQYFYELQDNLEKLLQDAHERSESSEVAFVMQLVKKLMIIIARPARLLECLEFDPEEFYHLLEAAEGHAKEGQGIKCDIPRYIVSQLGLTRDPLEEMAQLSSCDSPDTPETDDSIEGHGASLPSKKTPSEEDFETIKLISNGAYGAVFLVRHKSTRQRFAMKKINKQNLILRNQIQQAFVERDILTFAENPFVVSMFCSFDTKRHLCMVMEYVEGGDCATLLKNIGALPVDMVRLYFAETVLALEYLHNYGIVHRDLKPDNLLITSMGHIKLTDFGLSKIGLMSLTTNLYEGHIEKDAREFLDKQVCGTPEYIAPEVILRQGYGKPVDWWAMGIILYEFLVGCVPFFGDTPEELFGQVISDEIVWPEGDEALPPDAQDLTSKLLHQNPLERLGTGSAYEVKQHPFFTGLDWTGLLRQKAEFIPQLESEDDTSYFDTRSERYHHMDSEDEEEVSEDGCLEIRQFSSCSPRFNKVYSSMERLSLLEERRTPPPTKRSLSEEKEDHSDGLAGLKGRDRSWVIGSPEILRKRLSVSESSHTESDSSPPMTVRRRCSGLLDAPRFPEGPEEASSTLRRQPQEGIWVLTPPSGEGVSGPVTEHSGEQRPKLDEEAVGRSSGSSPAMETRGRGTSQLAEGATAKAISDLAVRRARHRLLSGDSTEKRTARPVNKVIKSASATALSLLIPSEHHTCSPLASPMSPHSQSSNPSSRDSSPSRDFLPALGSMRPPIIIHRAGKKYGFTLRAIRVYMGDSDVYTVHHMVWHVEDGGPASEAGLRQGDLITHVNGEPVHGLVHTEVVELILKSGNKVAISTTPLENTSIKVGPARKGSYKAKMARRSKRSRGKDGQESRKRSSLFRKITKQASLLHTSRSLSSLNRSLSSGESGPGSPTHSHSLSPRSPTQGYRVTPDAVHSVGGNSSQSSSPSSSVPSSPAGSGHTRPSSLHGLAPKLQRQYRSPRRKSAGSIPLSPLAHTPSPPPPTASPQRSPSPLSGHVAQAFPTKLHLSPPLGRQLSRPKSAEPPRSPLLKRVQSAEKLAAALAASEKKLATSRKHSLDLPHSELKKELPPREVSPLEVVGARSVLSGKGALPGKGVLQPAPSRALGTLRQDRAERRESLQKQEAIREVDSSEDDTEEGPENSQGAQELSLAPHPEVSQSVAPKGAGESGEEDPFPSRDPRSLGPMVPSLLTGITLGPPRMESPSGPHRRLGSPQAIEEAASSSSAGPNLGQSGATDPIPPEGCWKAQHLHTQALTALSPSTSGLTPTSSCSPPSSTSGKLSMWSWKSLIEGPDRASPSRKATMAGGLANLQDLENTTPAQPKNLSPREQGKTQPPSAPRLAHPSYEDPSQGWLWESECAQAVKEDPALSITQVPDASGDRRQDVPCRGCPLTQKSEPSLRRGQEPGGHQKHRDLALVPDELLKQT
T8 sequence (P48729 whole entry): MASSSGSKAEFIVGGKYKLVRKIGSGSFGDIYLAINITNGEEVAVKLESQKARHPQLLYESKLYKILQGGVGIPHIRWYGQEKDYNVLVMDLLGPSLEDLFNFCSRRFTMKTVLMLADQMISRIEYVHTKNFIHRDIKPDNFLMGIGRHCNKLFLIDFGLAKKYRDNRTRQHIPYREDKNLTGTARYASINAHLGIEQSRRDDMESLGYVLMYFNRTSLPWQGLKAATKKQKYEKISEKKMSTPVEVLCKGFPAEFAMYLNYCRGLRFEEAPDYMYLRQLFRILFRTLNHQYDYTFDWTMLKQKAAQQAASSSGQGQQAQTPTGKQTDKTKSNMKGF

With `N#CCc1ccc(Nc2nc(NCCCN)cc(Nc3cc(C4CC4)[nH]n3)n2)cc1` [KAM] the IC50 (MAST2; [1]) was over 10 µM, the “0.001 uM KAM” value (MAST2; relative to 0 uM KAM = 0) was -0.0424 and the “0.01 uM KAM” value (MAST2; relative to 0 uM KAM = 0) was 0.0396. The “0.1 uM KAM” value (MAST2; relative to 0 uM KAM = 0) was -0.03782, the “1 uM KAM” value (MAST2; relative to 0 uM KAM = 0) was -0.1315 and the “10 uM KAM” value (MAST2; relative to 0 uM KAM = 0) was -0.1411. For the same molecule, the IC50 (EIF2AK4; [1]) was over 10 µM, the “0.001 uM KAM” value (EIF2AK4; relative to 0 uM KAM = 0) was -0.0489 and the “0.01 uM KAM” value (EIF2AK4; relative to 0 uM KAM = 0) was 0.01964. For the same molecule, the “0.1 uM KAM” value (EIF2AK4; relative to 0 uM KAM = 0) was -0.07688, the “1 uM KAM” value (EIF2AK4; relative to 0 uM KAM = 0) was -0.1098 and the “10 uM KAM” value (EIF2AK4; relative to 0 uM KAM = 0) was -0.203. The “median Log10 fold change” value (MAP4K5; 0.001 uM KAM) was 0.009454, the “median Log10 fold change” value (MAP4K5; 0.01 uM KAM) was -0.01011 and the “median Log10 fold change” value (MAP4K5; 0.1 uM KAM) was -0.2304. The “median Log10 fold change” value (MAP4K5; 1 uM KAM) was -0.4191, the “median Log10 fold change” value (MAP4K5; 10 uM KAM) was -0.5735 and the IC50 (MAP4K5; [2]) was 332 nM. The IC50 (RPS6KA1; [1]) was over 10 µM, the “0.001 uM KAM” value (RPS6KA1; relative to 0 uM KAM = 0) was -0.05187 and the “0.01 uM KAM” value (RPS6KA1; relative to 0 uM KAM = 0) was 0.03804. The “0.1 uM KAM” value (RPS6KA1; relative to 0 uM KAM = 0) was -0.06196, the “1 uM KAM” value (RPS6KA1; relative to 0 uM KAM = 0) was -0.09025 and the “10 uM KAM” value (RPS6KA1; relative to 0 uM KAM = 0) was -0.1209. The “median Log10 fold change” value (MARK2; 0.001 uM KAM) was -0.02617, the “median Log10 fold change” value (MARK2; 0.01 uM KAM) was -0.01928 and the “median Log10 fold change” value (MARK2; 0.1 uM KAM) was -0.2168. The “median Log10 fold change” value (MARK2; 1 uM KAM) was -0.4361, the “median Log10 fold change” value (MARK2; 10 uM KAM) was -0.5469 and the IC50 (MARK2; [2]) was 336 nM. The IC50 (BUB1B; [1]) was over 10 µM, the “0.001 uM KAM” value (BUB1B; relative to 0 uM KAM = 0) was -0.0187 and the “0.01 uM KAM” value (BUB1B; relative to 0 uM KAM = 0) was -0.008778. The “0.1 uM KAM” value (BUB1B; relative to 0 uM KAM = 0) was -0.0591, the “1 uM KAM” value (BUB1B; relative to 0 uM KAM = 0) was -0.007813 and the “10 uM KAM” value (BUB1B; relative to 0 uM KAM = 0) was -0.008689. For the same molecule, the “median Log10 fold change” value (TNIK; 0.001 uM KAM) was -0.02112, the “median Log10 fold change” value (TNIK; 0.01 uM KAM) was -0.02269 and the “median Log10 fold change” value (TNIK; 0.1 uM KAM) was -0.2334. For the same molecule, the “median Log10 fold change” value (TNIK; 1 uM KAM) was -0.3546, the “median Log10 fold change” value (TNIK; 10 uM KAM) was -0.3559 and the IC50 (TNIK; [2]) was 646 nM. For the same molecule, the IC50 (CSNK1A1; [1]) was over 10 µM, the “0.001 uM KAM” value (CSNK1A1; relative to 0 uM KAM = 0) was 0.05671 and the “0.01 uM KAM” value (CSNK1A1; relative to 0 uM KAM = 0) was -0.02341. For the same molecule, the “0.1 uM KAM” value (CSNK1A1; relative to 0 uM KAM = 0) was 0.02518, the “1 uM KAM” value (CSNK1A1; relative to 0 uM KAM = 0) was 0.03521 and the “10 uM KAM” value (CSNK1A1; relative to 0 uM KAM = 0) was -0.008144. For the same molecule, the IC50 (EEF2K; [1]) was over 10 µM, the “0.001 uM KAM” value (EEF2K; relative to 0 uM KAM = 0) was 0.04185 and the “0.01 uM KAM” value (EEF2K; relative to 0 uM KAM = 0) was 0.02355. For the same molecule, the “0.1 uM KAM” value (EEF2K; relative to 0 uM KAM = 0) was 0.1074, the “1 uM KAM” value (EEF2K; relative to 0 uM KAM = 0) was 0.1036 and the “10 uM KAM” value (EEF2K; relative to 0 uM KAM = 0) was 0.09999. The IC50 (LIMK1; [1]) was over 10 µM, the “0.001 uM KAM” value (LIMK1; relative to 0 uM KAM = 0) was -0.03519 and the “0.01 uM KAM” value (LIMK1; relative to 0 uM KAM = 0) was -0.04768. The “0.1 uM KAM” value (LIMK1; relative to 0 uM KAM = 0) was -0.0434, the “1 uM KAM” value (LIMK1; relative to 0 uM KAM = 0) was 0.03552 and the “10 uM KAM” value (LIMK1; relative to 0 uM KAM = 0) was -0.3303. For the same molecule, the “median Log10 fold change” value (CDK16; 0.001 uM KAM) was 0.002002, the “median Log10 fold change” value (CDK16; 0.01 uM KAM) was 0.005918 and the “median Log10 fold change” value (CDK16; 0.1 uM KAM) was -0.06683. The “median Log10 fold change” value (CDK16; 1 uM KAM) was -0.3041, the “median Log10 fold change” value (CDK16; 10 uM KAM) was -0.3301 and the IC50 (CDK16; [2]) was 1970 nM. For the same molecule, the IC50 (ROCK1; [1]) was over 10 µM, the “0.001 uM KAM” value (ROCK1; relative to 0 uM KAM = 0) was -0.0607 and the “0.01 uM KAM” value (ROCK1; relative to 0 uM KAM = 0) was -0.006672. For the same molecule, the “0.1 uM KAM” value (ROCK1; relative to 0 uM KAM = 0) was -0.08063, the “1 uM KAM” value (ROCK1; relative to 0 uM KAM = 0) was -0.07367 and the “10 uM KAM” value (ROCK1; relative to 0 uM KAM = 0) was -0.1223.

Source: article PMC5513037, “Examining the influence of specificity ligands and ATP-competitive ligands on the overall effectiveness of bivalent kinase inhibitors” (Proteome Science, 2017)
